Broadly, the Kd is the equilibrium constant for the complex coming apart. A word on the IC50: it is the concentration that inhibits the measured activity by half.

Here are results for eight compounds from US10774122B2, “ERG targeted therapy” (The Regents of the University of Michigan, priority 2017, dated 2020).

The target in data set [1] is T1, ERG_Y373A (Homo sapiens, UniProt P11308, Y373A).
Text: (§2) Halo fusion proteins were expressed using the TNT® SP6 High-Yield Wheat Germ kit (Promega) following the manufacturer's protocol.
The target of data set [2] is T2, ERG (Homo sapiens, UniProt P11308).
T2 sequence (P11308 1-479): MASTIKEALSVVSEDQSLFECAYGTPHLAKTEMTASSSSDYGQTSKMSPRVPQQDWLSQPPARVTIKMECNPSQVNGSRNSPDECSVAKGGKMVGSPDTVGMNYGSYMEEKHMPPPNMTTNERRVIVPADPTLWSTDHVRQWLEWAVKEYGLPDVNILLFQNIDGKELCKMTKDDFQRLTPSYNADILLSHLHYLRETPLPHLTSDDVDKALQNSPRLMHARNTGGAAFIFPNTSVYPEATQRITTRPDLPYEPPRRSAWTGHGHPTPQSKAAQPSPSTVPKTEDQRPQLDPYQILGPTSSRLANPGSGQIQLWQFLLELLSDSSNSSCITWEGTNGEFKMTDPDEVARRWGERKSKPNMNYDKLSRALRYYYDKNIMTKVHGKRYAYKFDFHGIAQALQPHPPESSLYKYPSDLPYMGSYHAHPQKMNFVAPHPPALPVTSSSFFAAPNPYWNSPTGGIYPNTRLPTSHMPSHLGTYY
Text: as §2

Data set [3] addresses T3, TMPRSS2:ERG gene fusion product (endogenous ERG) (Homo sapiens, UniProt P11308).
T3 construct: endogenous in cells; host or cells: VCaP cells (ATCC): cultured cells, lysates or extracts, or VCaP xenograft tumours in nude mice
In words: Biotin-peptide pull-down from VCaP cell lysates, immunoblot and mass spectrometry. The format is binding. Conditions: 53 kDa band of pull-downs, mass spectrometry. The method, then: (§1) Approximately 1 mg of soluble VCaP cell lysate prepared in RIPA buffer (Invitrogen) was incubated with varying amounts of biotinylated peptides for 2 hours at 4° C. HaloLink agarose beads (20 μl) were added to the peptide-lysate mixture and incubated for an additional 4 hours. Beads were then pelleted by centrifugation, washed three times in PBS-T and loaded into an SDSPAGE gel followed by Western blot analysis. Total VCaP cell lysate was loaded for positive control.
The samples were treated with SDS loading buffer supplied with 10 mM DTT for 5 min at 85° C. The proteins were alkylated by adding iodoacetamide to the final concentration of 15 mM. The samples were subjected to SDS-PAGE and the whole lanes were cut out and digested with trypsin in-gel for 2 hours. […]
The resulting spectrum files were transformed into MGF format by MSConvert software and interrogated by MASCOT 2.4 search engine using human UniProt database version 15 concatenated with reverse sequences for estimation of false discovery rate (FDR) and with a list of common contaminants. […] The peptide FDR was calculated as 2×(decoy_hits)/(target+decoy hits). Spectral counts for all detected proteins were assembled using an in-house written Python script. […]

In data set [4] the target is T2, ERG. This is another data set of the same source.
Experimental: (§3) The interaction coefficients between ERG and synthetic peptides or peptidomimetics were determined by biolayer interferometry technology using the Octet Red system (ForteBio). Purified ERG and GUS proteins were biotinylated by EZLink NHS-PEG4 Biotinylation Kit (Thermo Scientific) following the manufacturer's protocol and any unincorporated biotin was removed from the reactions with Zeba 2 ml desalt columns (Thermo). Biotinylated proteins (500 μg/ml) were then incubated with super streptavidin biosensors in binding buffer (20 mM HEPES pH 7.4, 150 mM NaCl), blocked with 10 μg/ml biocytin and washed three times in binding buffer. Peptides were serially diluted in binding buffer, mixed with the protein-coupled biosensors and peptidomimetic:protein association/dissociation was monitored for 10 min at 25° C. Nonspecific binding from the signal obtained from peptidomimetic:GUS interactions was subtracted from that of peptidomimetic:ERG interactions and baseline signal drift was controlled by monitoring immobilized ERG without peptide. Octet Red analysis software was used to analyze the data.
In another data set the target is T4, HUVEC ERG (Homo sapiens, UniProt P11308).
T4 construct: wild-type ERG expressed in human or murine endothelial cells; endogenous in cells; host or cells: HUVEC (human umbilical vein endothelial cells)
In words: Pull-down from whole cell lysates normalized for ERG levels. In kind it is binding.

For the next data set, the target named is T5, VCaP ERG (Homo sapiens, UniProt P11308).
T5 construct: endogenous in cells; host or cells: VCaP cells (ATCC): cultured cells, lysates or extracts, or VCaP xenograft tumours in nude mice
Described as above. The format is binding. The method, then:
as §1
It was then determined whether RI-EIP affects normal ERG function.

A further data set deals with T6, wild-type ERG (wtERG) (Homo sapiens, UniProt P11308).
T6 construct: cDNAs encoding full-length ERG and GUS were cloned into pDEST10 vector; His; made in house; host or cells: SF9 insect cells (Bac-to-Bac baculovirus)
Briefly: Pull-down of purified recombinant proteins with biotin-peptides. The format is binding. The following applies: purified recombinant protein. The method, then: (A) Pull-down experiment was performed by incubating purified recombinant proteins and biotin-peptides. (B-C) Representative sensorgrams for both wtERG and ERG_Y373A binding to EIP1. Real-time binding was measured by immobilization of biotinylated proteins to the streptavidin biosensors and subsequent interactions with varying concentrations of synthetic peptides as indicated. (D) Steady-state analysis of real-time binding data for wtERG/ERG_Y373A and synthetic peptides. (E) Electrophoretic mobility shift assay (EMSA) for ERG and ETS binding sequence (EBS).

For data set [5] the following is noted: human, in vivo; cited from earlier work.
Data set [6] has as its target T7, ERG in VCaP cells (Homo sapiens, UniProt P11308). Briefly: Immunoblot of ERG protein in treated VCaP cells. The following applies: proteasome inhibitor co-treatment.
Experimental: VCaP cells were seeded in 6-well plates at 0.5×10^6 cells/ml and after allowing cells to attach, cells were harvested and homogenized in NP40 lysis buffer (Sigma) containing a complete protease inhibitor cocktail (Roche). Ten micrograms of each protein extract was boiled in SDS sample buffer, size fractionated by SDS-PAGE, and transferred onto a PVDF membrane (GE Healthcare). […] Following three washes in TBS-T, the blots were incubated with horseradish peroxidase conjugated secondary antibody and the signals visualized by enhanced chemiluminescence system according to manufacturer's instructions (GE Healthcare).
For data set [7], the target named is T7, ERG in VCaP cells.
Experimental: The following primary and secondary antibodies were used: mouse-anti-ERG (Biocare) and goat-anti-mouse-Cy5 (Jackson Immuno-Research) respectively. […] Emission from individual fluorophores was detected sequentially. Image processing was performed in Imaris and colocalization analysis was done in Imaris (Bitplane). Colocalization was calculated as the percentage of FITC spots that colocalized with ERG spots in the nucleus.
The target in data set [8] is T2, ERG. In words: ERG:peptide binding by biolayer interferometry (OctetRED). The following applies: OctetRED biolayer interferometry, values in text. For orientation: BLI is a label-free optical method that tracks binding on a fibre tip over time.
Experimental: as §3
In data set [9] the test system is Ewing sarcoma cells containing the EWS-ERG fusion. In kind it is cell-based. The source says:
(A) Pull down of ERG in Ewing sarcoma cells containing a EWS-ERG fusion and reduced tumor growth in xenografts models of Ewing sarcoma. (B) Tumors containing the EWS-FLI1 fusion or osteosarcomas (A204) are not affected by treatments with peptides of the disclosure. […] Similarly, invasion potential was reduced by EIP1 and EIP2 treatment in Ewing sarcoma cells containing the EWS-ERG fusion.

Data set [10] has as its target T1, ERG_Y373A. Briefly: biochemical. In kind it is binding.
Experimental: as §3
The next data set has as its target T8, ERG:DNA-PKcs interaction (Homo sapiens, UniProt P11308).
T8 sequence (P11308 1-479): T2 sequence (P11308 1-479)

For a further data set, the target named is T9, ERG:AR interaction (Homo sapiens, UniProt P11308).
T9 sequence (P11308 1-479): T2 sequence (P11308 1-479)

For data set [11], the system named is cells containing the EWS-FLI1 fusion. In words: DNA damage in Ewing sarcoma cells. The format is cell-based.
For the next data set, the target named is T10, ERG:EBS DNA interaction (Homo sapiens, UniProt P11308).
T10 construct: endogenous in cells; host or cells: VCaP cells (ATCC): cultured cells, lysates or extracts, or VCaP xenograft tumours in nude mice
The format is biochemical. The method, then:
To determine the inhibitory activity of the peptide against the ERG:DNA interaction, electrophoretic mobility shift assays (EMSAs) were performed. Double stranded ERG ETS binding sequence (5′ […] 3′ (SEQ ID NO:109)) was end labeled using Biotin 3′ End DNA Labeling Kit (Pierce). For each binding reaction, VCaP cell extract was incubated with 1 μg poly d (I-C), 2 μl of EMSA binding buffer (1.5% glycerol, 75 mM KCl, 0.375 mM DTT, 12.5 mM NaCl, 0.375 mM phenylmethylsulfonyl fluoride [PMSF]) and 5 μM biotin-labeled EBS in the presence or absence of the peptides as indicated for 30 min at room temperature. The reaction mixtures were loaded onto 6% TBE gels (Invitrogen) and electrophoresed at 120 V for 2 hr at 4° C. in […] Tris-Borate-EDTA (TBE). Probes were transferred to nylon membrane (Biodyne B, Pall) in a semidry blotting device at 300 mA for 30 min. The membrane was baked for 30 min at 85° C. in a dry oven. Biotinylated oligonucleotides were detected by probing with streptavidin-conjugated horseradish peroxidase and visualized by enhanced chemiluminescence (Pierce).

Another data set concerns VCaP cells. In words: Immunofluorescence confocal microscopy of FITC-labeled peptide uptake. In kind it is cell-based. The following applies: FITC-labeled peptides. The procedure:
After 2 hours incubation, cells were washed two times in PBS, and fixed for 15 min in 100% methanol. After washing an additional three times in PBS, cells were mounted using Vectashield with DAPI (Vector laboratories). Images were captured using 100× oil objective lens on an Olympus Confocal microscope at the University of Michigan microscopy imaging lab.

A further data set concerns the target GRPR (Homo sapiens, UniProt P30550). The following applies: Peptides 13, 775 (1992); cited from earlier work.
A further data set concerns the target PSMA (Homo sapiens, UniProt Q04609). The following applies: reported in literature; cited from earlier work.

Where a SMILES comes first, the peptide text is derived from it. Where no end group is shown, it is not given here. The star is where a group is joined. Biotin = O=C1N[C@H]2[C@H](CS[C@H]2CCCCC(=O)*)N1

T1 sequence (P11308 whole entry Y373A): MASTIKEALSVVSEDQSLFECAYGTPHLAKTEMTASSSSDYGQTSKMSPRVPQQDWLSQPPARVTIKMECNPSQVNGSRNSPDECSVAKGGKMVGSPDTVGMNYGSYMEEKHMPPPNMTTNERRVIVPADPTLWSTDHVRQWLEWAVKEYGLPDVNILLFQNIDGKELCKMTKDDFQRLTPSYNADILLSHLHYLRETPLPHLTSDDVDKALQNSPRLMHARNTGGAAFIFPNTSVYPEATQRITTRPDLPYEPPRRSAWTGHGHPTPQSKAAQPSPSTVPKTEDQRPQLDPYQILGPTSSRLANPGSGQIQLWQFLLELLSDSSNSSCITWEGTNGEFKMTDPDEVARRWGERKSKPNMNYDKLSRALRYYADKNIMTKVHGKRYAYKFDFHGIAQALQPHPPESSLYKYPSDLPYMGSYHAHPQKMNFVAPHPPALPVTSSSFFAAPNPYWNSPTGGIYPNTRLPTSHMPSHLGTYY
Chain of GRPR (P30550 whole entry, species assumed): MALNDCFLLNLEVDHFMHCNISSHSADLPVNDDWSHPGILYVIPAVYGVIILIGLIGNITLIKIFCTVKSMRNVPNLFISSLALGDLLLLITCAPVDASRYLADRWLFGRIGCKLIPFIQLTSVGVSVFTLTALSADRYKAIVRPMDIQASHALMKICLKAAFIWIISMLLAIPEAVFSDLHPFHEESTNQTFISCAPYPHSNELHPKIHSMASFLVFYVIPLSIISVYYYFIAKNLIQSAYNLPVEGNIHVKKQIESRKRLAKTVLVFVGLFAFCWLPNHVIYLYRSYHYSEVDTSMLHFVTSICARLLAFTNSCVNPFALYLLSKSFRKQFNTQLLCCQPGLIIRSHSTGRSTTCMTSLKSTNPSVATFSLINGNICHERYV
Chain of PSMA (Q04609 whole entry): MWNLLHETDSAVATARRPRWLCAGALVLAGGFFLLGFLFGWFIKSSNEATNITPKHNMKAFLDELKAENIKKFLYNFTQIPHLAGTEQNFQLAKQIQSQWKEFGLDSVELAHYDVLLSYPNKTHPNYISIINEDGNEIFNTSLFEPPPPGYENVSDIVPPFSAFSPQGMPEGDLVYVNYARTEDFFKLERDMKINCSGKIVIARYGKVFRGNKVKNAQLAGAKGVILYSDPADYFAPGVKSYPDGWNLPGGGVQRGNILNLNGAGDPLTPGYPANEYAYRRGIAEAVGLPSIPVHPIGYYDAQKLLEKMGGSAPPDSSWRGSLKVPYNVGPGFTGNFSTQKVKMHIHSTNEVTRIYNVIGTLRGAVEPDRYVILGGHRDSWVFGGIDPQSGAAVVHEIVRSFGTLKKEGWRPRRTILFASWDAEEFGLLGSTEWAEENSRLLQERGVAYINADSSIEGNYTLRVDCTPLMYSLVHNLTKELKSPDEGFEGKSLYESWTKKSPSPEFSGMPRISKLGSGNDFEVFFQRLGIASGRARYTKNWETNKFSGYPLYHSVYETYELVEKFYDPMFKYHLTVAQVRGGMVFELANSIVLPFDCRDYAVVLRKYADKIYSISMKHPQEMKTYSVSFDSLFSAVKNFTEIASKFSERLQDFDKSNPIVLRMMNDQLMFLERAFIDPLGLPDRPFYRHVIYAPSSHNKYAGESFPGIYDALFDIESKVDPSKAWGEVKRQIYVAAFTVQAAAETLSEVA
Experimental for ERG:AR interaction: (§4) Halo-ERG fusion protein was expressed using in vitro transcription/translation system as described above. […] Protein mixtures were incubated with or without the peptides in PBS-T (0.1% Tween) at 4° C. overnight. Simultaneously, HaloLink beads (Promega) were blocked in 5% BSA at 4° C. overnight. The next day 10 μl of HaloLink beads were mixed with the protein-peptide mixture, incubated at RT for 1 hour, washed with 4× in PBS-T and eluted into SDS sample buffer. […] HaloLink beads without incubation with fusion proteins were used as negative controls.
Experimental for ERG:DNA-PKcs interaction: as §4

Consider `CC(C)C[C@H](NC(=O)CCCC[C@@H]1SC[C@@H]2NC(=O)N[C@@H]21)C(=O)N[C@@H](CO)C(=O)N[C@@H](Cc1ccccc1)C(=O)NCC(=O)N[C@@H](CO)C(=O)N[C@@H](CC(C)C)C(=O)N1CCC[C@H]1C(=O)O` [biotin-EIP2, Biotin-LSFGSLP] (Biotin-LSFGSLP-OH), for which the “interaction with ERG (Y373A)” value on ERG_Y373A [1] is listed as “No interaction was detected”. Moreover, at ERG [2], the “interaction with ERG” value is on record as “interact strongly”. In addition, the “spectral counts for the ERG peptide NTGGAAFIFPNTSVYPEATQR” value in data set [3] worked out at 111 spectral counts.
For “H-PYLFT-NH2 [Compound 5PT-N, NH2-PYLFT-NH2]”, the “binding to ERG” value on ERG [4] is reported as “most potent truncated peptides”.
As for `CC(C)C[C@H](NC(=O)[C@H](Cc1ccc(O)cc1)NC(=O)[C@@H]1CCCN1C(=O)[C@@H]1CCCN1C(=O)[C@H](CC(C)C)NC(=O)CCCC[C@@H]1SC[C@@H]2NC(=O)N[C@@H]21)C(=O)N[C@@H](Cc1ccccc1)C(=O)N[C@H](C(=O)O)[C@@H](C)O` [Biotin-EIP1, Biotin-LPPYLFT] (Biotin-LPPYLFT-OH), the “amount of cell lysate for ERG pull-down” value on HUVEC ERG was determined as 8 mg/mL; on VCaP ERG it was 0.25 mg/mL. Moreover, the “pull-down of wtERG” value on wild-type ERG (wtERG) is “pulled down”.
For `CCNC(=O)[C@@H]1CCCN1C(=O)[C@H](CCCNC(=N)N)NC(=O)[C@H](CC(C)C)NC(=O)[C@@H](CC(C)C)NC(=O)[C@H](Cc1ccc(O)cc1)NC(=O)[C@H](CO)NC(=O)[C@H](Cc1c[nH]c2ccccc12)NC(=O)[C@H](Cc1c[nH]cn1)NC(=O)[C@@H]1CCC(=O)N1` [Leuprolide, pyro-EHWSY1LRP-NHEt], the half life in [5] was 3 h.
For `CC(C)C[C@H](NC(=O)[C@H](CCc1ccccc1)NC(=O)CN1CCOCC1)C(=O)N[C@@H](Cc1ccccc1)C(=O)N[C@@H](CC(C)C)C(=O)[C@@]1(C)CO1` [carfilzomib], at ERG in VCaP cells [6], the “effect on RI-EIP1-induced degradation of ERG protein” value is reported as “completely inhibited”.
Take LPPYLFT [EIP1, LPPYLFT]: the “extent of green-red colocalization in the nucleus” value on ERG in VCaP cells [7] amounted to 78±5%. Besides, the Kd at ERG [8] is 600 nM; at ERG_Y373A [10], greater than 100000 nM. Moreover, the “DNA damage caused by oncogenic ERG (EWS-ERG fusion)” value in [9] was “reduce DNA damage”. The invasion potential result in [9] is listed as “reduced”. The “disruption of direct ERG:DNA-PKcs interaction” value at ERG:DNA-PKcs interaction is recorded as “disrupted”. Also, the “disruption of direct ERG:AR interaction” value on ERG:AR interaction is given as “disrupted”. For the same compound, the “DNA damage in cells containing the EWS-FLI1 fusion” value in data set [11] is listed as “no effect”. The “disruption of ERG:EBS DNA interaction” value on ERG:EBS DNA interaction was “effectively disrupted”. For the same compound, the “entry into VCaP cells” value with VCaP cells is on record as “did not penetrate the cell membrane”.
For fQWAVaHLM-OMe, at GRPR, the “affinity as GRPR antagonist” value is on record as “good affinity”.
For `O=C(O)CC[C@H](NC(=O)N[C@@H](CCCCN(Cc1ccc(Br)cc1)C(=O)CCOCCOCCOCCOCCOCCOCCOCCOCCOCCOCCOCCOCCNC(=O)CCCC[C@@H]1SC[C@@H]2NC(=O)N[C@@H]21)C(=O)O)C(=O)O` [Analogue 3], the concentration for half-maximal inhibition (IC50) at PSMA is 1.3 nM.
